# Patent publication US8952024B2, “Herbicidal pyrimidone derivatives” (E I du Pont de Nemours and Company, priority 2009, dated 2015)
# Tests used:
# Assay type in all cases: in vivo
# [1] = tested on: goosegrass (Eleusine indica); assay: Test B pre-/postemergence plant response
# In short: (§1)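 Ratings reflect visual comparison with untreated controls 13 to 15 days after application, from 0 (no effect) to 100 (complete control). Application was preemergence to seeded loam/sand soil or postemergence to 1- to 4-leaf plants, with compound in a non-phytotoxic, surfactant-containing solvent.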
# [2] = tested on: giant foxtail (Setaria faberii); assay: Test B pre-/postemergence plant response
# In short: as §1
# [3] = tested on: johnsongrass (Sorghum halepense); assay: Test B pre-/postemergence plant response
# In short: as §1
# [4] = tested on: velvetleaf (Abutilon theophrasti); assay: Test B pre-/postemergence plant response
# In short: as §1
# [5] = tested on: lambsquarters (Chenopodium album); assay: Test B pre-/postemergence plant response
# In short: as §1
# [6] = tested on: yellow nutsedge (Cyperus esculentus); assay: Test B pre-/postemergence plant response
# In short: as §1
# soybean (Glycine max) = assay: Test B pre-/postemergence plant response
# In short: as §1
# [7] = tested on: pigweed (Amaranthus retroflexus); assay: Test B pre-/postemergence plant response
# In short: as §1
# [8] = tested on: green foxtail (Setaria viridis); assay: Test B pre-/postemergence plant response
# In short: as §1
# corn (Zea mays) = assay: Test B pre-/postemergence plant response
# In short: as §1
# [9] = tested on: winter barley (Hordeum vulgare); assay: Test B postemergence plant response
# In short: (§2)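 Visual ratings from 0 (no effect) to 100 (complete control), made against controls 13–15 days after treatment, kept in a greenhouse. Compounds were applied postemergence to potted plants at the 1- to 4-leaf stage (2–18 cm).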
# [10] = tested on: canarygrass (Phalaris minor); assay: Test B postemergence plant response
# In short: as §2
# [11] = tested on: windgrass (Apera spica-venti); assay: Test B postemergence plant response
# In short: as §2
# [12] = tested on: chickweed (Stellaria media); assay: Test B postemergence plant response
# In short: as §2
# [13] = 31 g ai/ha, postemergence, scale 0 to 100, 0 is no effect, 100 is complete control
# [14] = 250 g ai/ha, Preemergence, 0 to 100 scale
# [15] = Postemergence, 62 g ai/ha, scale 0 (no effect) to 100 (complete control), 13 to 15 days
# [16] = Postemergence, 125 g ai/ha, visual rating after 13 to 15 days, scale 0 (no effect) to 100 (complete control)
# [17] = Postemergence, 250 g ai/ha, scale 0 to 100 (0 no effect, 100 complete control)
# [18] = Preemergence, 31 g ai/ha, scale 0 to 100 (0 no effect, 100 complete control)
# [19] = Preemergence, 62 g ai/ha, scale 0 to 100 (0 no effect, 100 complete control)
# [20] = Preemergence, 125 g ai/ha, scale 0 to 100, 0 no effect, 100 complete control
smiles,measurement,setting,value
O=C1CCCC(O)=C1C(=O)c1cnc(-c2cccc(Cl)c2)n(-c2ccc(Cl)cc2)c1=O [Compound 64],"Plant response rating, Goosegrass",[1]; [13],80
same,"Plant response rating, Goosegrass",[1]; [14],100
same,"Plant response rating, Goosegrass",[1]; [15],80
same,"Plant response rating, Goosegrass",[1]; [16],85
same,"Plant response rating, Goosegrass",[1]; [17],90
same,"Plant response rating, Goosegrass",[1]; [18],30
same,"Plant response rating, Goosegrass",[1]; [19],40
same,"Plant response rating, Goosegrass",[1]; [20],98
same,"Plant response rating, Foxtail, Giant",[2]; [13],90
same,"Plant response rating, Foxtail, Giant",[2]; [14],65
same,"Plant response rating, Foxtail, Giant",[2]; [15],95
same,"Plant response rating, Foxtail, Giant",[2]; [16],98
same,"Plant response rating, Foxtail, Giant",[2]; [17],100
same,"Plant response rating, Foxtail, Giant",[2]; [18],20
same,"Plant response rating, Foxtail, Giant",[2]; [19],25
same,"Plant response rating, Foxtail, Giant",[2]; [20],35
same,"Plant response rating, Johnsongrass",[3]; [13],90
same,"Plant response rating, Johnsongrass",[3]; [14],75
same,"Plant response rating, Johnsongrass",[3]; [15],98
same,"Plant response rating, Johnsongrass",[3]; [16],100
same,"Plant response rating, Johnsongrass",[3]; [17],100
same,"Plant response rating, Johnsongrass",[3]; [18],0
same,"Plant response rating, Johnsongrass",[3]; [19],0
same,"Plant response rating, Johnsongrass",[3]; [20],55
same,"Plant response rating, Velvetleaf",[4]; [13],85
same,"Plant response rating, Velvetleaf",[4]; [15],98
same,"Plant response rating, Velvetleaf",[4]; [16],98
same,"Plant response rating, Velvetleaf",[4]; [17],100
same,"Plant response rating, Velvetleaf",[4]; [18],65
same,"Plant response rating, Velvetleaf",[4]; [19],75
same,"Plant response rating, Velvetleaf",[4]; [20],95
same,"Plant response rating, Lambsquarters",[5]; [13],95
same,"Plant response rating, Lambsquarters",[5]; [14],98
same,"Plant response rating, Lambsquarters",[5]; [15],100
same,"Plant response rating, Lambsquarters",[5]; [16],100
same,"Plant response rating, Lambsquarters",[5]; [17],100
same,"Plant response rating, Lambsquarters",[5]; [18],95
same,"Plant response rating, Lambsquarters",[5]; [19],98
same,"Plant response rating, Lambsquarters",[5]; [20],98
same,"Plant response rating, Nutsedge, Yellow",[6]; [13],0
same,"Plant response rating, Nutsedge, Yellow",[6]; [15],10
same,"Plant response rating, Nutsedge, Yellow",[6]; [16],10
same,"Plant response rating, Nutsedge, Yellow",[6]; [17],25
same,"Plant response rating, Nutsedge, Yellow",[6]; [18],0
same,"Plant response rating, Nutsedge, Yellow",[6]; [19],0
same,"Plant response rating, Nutsedge, Yellow",[6]; [20],0
same,"Plant response rating, Soybean",soybean (Glycine max); [13],85
same,"Plant response rating, Soybean",soybean (Glycine max); [15],98
same,"Plant response rating, Soybean",soybean (Glycine max); [16],98
same,"Plant response rating, Soybean",soybean (Glycine max); [17],98
same,"Plant response rating, Pigweed",[7]; [13],98
same,"Plant response rating, Pigweed",[7]; [15],100
same,"Plant response rating, Pigweed",[7]; [16],100
same,"Plant response rating, Pigweed",[7]; [17],100
same,"Plant response rating, Pigweed",[7]; [18],55
same,"Plant response rating, Pigweed",[7]; [19],75
same,"Plant response rating, Pigweed",[7]; [20],85
same,"Plant response rating, Foxtail, Green",[8]; [13],70
same,"Plant response rating, Foxtail, Green",[8]; [14],50
same,"Plant response rating, Foxtail, Green",[8]; [15],85
same,"Plant response rating, Foxtail, Green",[8]; [16],100
same,"Plant response rating, Foxtail, Green",[8]; [17],100
same,"Plant response rating, Foxtail, Green",[8]; [18],0
same,"Plant response rating, Foxtail, Green",[8]; [19],0
same,"Plant response rating, Foxtail, Green",[8]; [20],0
same,"Plant response rating, Corn",corn (Zea mays); [13],80
same,"Plant response rating, Corn",corn (Zea mays); [14],0
same,"Plant response rating, Corn",corn (Zea mays); [15],85
same,"Plant response rating, Corn",corn (Zea mays); [16],85
same,"Plant response rating, Corn",corn (Zea mays); [17],90
same,"Plant response rating, Corn",corn (Zea mays); [18],0
same,"Plant response rating, Corn",corn (Zea mays); [19],0
same,"Plant response rating, Corn",corn (Zea mays); [20],0
same,"Plant response rating, Barley",[9]; [13],15
same,"Plant response rating, Barley",[9]; [17],35
same,"Plant response rating, Canarygrass",[10]; [13],40
same,"Plant response rating, Canarygrass",[10]; [15],40
same,"Plant response rating, Canarygrass",[10]; [16],40
same,"Plant response rating, Canarygrass",[10]; [17],60
same,"Plant response rating, Windgrass",[11]; [13],70
same,"Plant response rating, Windgrass",[11]; [15],90
same,"Plant response rating, Windgrass",[11]; [16],95
same,"Plant response rating, Windgrass",[11]; [17],100
same,"Plant response rating, Chickweed",[12]; [13],98
same,"Plant response rating, Chickweed",[12]; [15],98
same,"Plant response rating, Chickweed",[12]; [16],98
same,"Plant response rating, Chickweed",[12]; [17],100
